Measured values taken from patent publication EP4755889A1, “COMPOUND FOR DETECTING AMYLOID-BETA OLIGOMER AND METHOD FOR DIAGNOSING DEGENERATIVE BRAIN DISEASE USING SAME” (Amyloid Solution Inc., priority 2024, dated 2025).

Key:
[1] = molecular target: T1, Aβ1-42-Aβn-(n+5) complexes (Homo sapiens, UniProt P05067); assay: Mapping Amyloid Plate (MAP): binding to complexes of Aβ1-42 with fragments
T1 construct: full-length Aβ1-42 peptide was added to the MAP and incubated at 37 °C for 8 hours
Protocol: (§1) A Mapping Amyloid Plate (MAP) for investigating the target site of the compound of the present disclosure on Aβ1-42 fragments or Aβ1-42 oligomers was prepared with reference to Korean Patent Application No. 10-2023-0133625, which is incorporated herein by reference in its entirety.
(§2) Briefly, to remove the bovine serum albumin coating from the plate, each well of the plate was washed three times with 200 µL of wash buffer (0.1 M sodium phosphate, 0.15 M sodium chloride, 0.05 % Tween-20, pH 7.2). Full-length and fragmented peptides of Aβ1-42 were individually dissolved in DMSO to prepare […] stock solutions, which were then diluted with binding buffer (0.1 M sodium phosphate, 0.15 M sodium chloride, 10 mM EDTA, pH 7.2) to prepare 50 µg/mL peptide solutions (5 % DMSO). 100 µL of the peptide solution was added to each well and allowed to react with the maleimide at room temperature overnight. After peptide immobilization, unbound peptides were removed by washing three times with 200 µL of wash buffer. To inactivate residual maleimide groups, 200 µL of a cysteine solution (10 µg/mL in binding buffer) was added to each well and incubated at room temperature for 1 hour. After cysteine capping, all wells of the plate were washed three times with 200 µL of wash buffer.
Two conditions were prepared to confirm whether the compound of the present disclosure targets the structure or the sequence of Aβ oligomers. First, the compound of the present disclosure (50 µM) was prepared in binding buffer (10 % DMSO), and 100 µL of the compound was added to the MAP and treated for 24 hours at room temperature. After incubation, all wells were washed three times with 200 µL of wash buffer. Second, full-length Aβ1-42 peptide was added to the MAP and incubated at 37 °C for 8 hours to form complexes between full-length Aβ1-42 and fragmented Aβ1-42. […] The fluorescence intensity of both plates was measured using a microplate reader (λex = 285 nm/λem = 475 nm). […]

Aβn-(n+5) (n = 1 to 37) = assay: Mapping Amyloid Plate (MAP): binding to immobilized Aβ1-42 hexamer fragments; details: MAP treated with IK15j for 24 hours
Protocol: as §1
as §2, with “To inactivate residual maleimide groups, 200 µL of a cysteine solution (10 µg/mL in binding buffer) was added to each well and incubated at room temperature for 1 hour. After cysteine capping, all wells of the plate were washed three times with 200 µL of wash buffer.” left out
Two conditions were prepared to confirm whether the compound of the present disclosure targets the structure or the sequence of Aβ oligomers. […] The fluorescence intensity of both plates was measured using a microplate reader (λex = 285 nm/λem = 475 nm). […]

Aβ oligomers (oAβ) = molecular target: T2, Aβ oligomers (oAβ) (Homo sapiens, UniProt P05067); assay: Fluorescence on plate-immobilized Aβ monomers and oligomers; type: binding; details: mAβ and oAβ at 10 µM each immobilized on a plate; IK15j (100 µM) for 24 hours
T2 construct: Full-length and fragmented peptides of Aβ1-42 were individually dissolved in DMSO
Protocol: as §2, with “To inactivate residual maleimide groups, 200 µL of a cysteine solution (10 µg/mL in binding buffer) was added to each well and incubated at room temperature for 1 hour. After cysteine capping, all wells of the plate were washed three times with 200 µL of wash buffer.” left out
In addition, considering that EPPS might interfere with the interaction between IK15j and Aβ monomers, Aβ monomers and oligomers were immobilized on a plate according to the Aβ immobilization protocol of Reference Example 2, and then incubated with IK15j. Briefly, Aβ monomers (mAβ) and Aβ oligomers (oAβ) at 10 µM each were immobilized on a plate, treated with IK15j (100 µM) for 24 hours, and the fluorescence intensity was then measured; blank wells were treated with IK15j (100 µM) alone without immobilization of Aβ species.

Aβ1-42 oligomers = molecular target: T3, Aβ1-42 oligomers (Homo sapiens, UniProt P05067); assay: Selectivity for blood proteins: Aβ1-42 oligomers; type: binding; details: IK15j (25 µM); compared with albumin and fibrinogen
T3 construct: Aβ1-42 peptide was aggregated at 37 °C for 8 hours
Protocol: (§3) Aβ1-42 peptide was aggregated at 37 °C for 8 hours, and 25 µM of Aβ1-42 oligomers, albumin (Sigma-Aldrich, USA), and fibrinogen (Sigma-Aldrich, USA) were seeded into a black microplate. Each sample was treated with IK15j (100 µM) for 8 hours at room temperature. The signal of each sample was detected using a microplate reader (λex = 285 nm / λem = 475 nm).
(§4) Excluding water, the solid components of plasma consist of coagulation factors and plasma proteins. Albumin is the most abundant protein in plasma, and fibrinogen is a major coagulation factor in plasma. Considering the possibility that fibrinogen or albumin might interact with AD diagnostic tools and interfere with compound selectivity, IK15j (25 µM) was incubated with Aβ1-42, albumin, or fibrinogen as described in Reference Example 10, and the fluorescence signal of each sample was measured to evaluate the selectivity of the compound of the present disclosure against these proteins.

[2] = molecular target: T4, Aβ oligomer-albumin complex (Homo sapiens, UniProt P05067); assay: Plate-immobilized Aβ oligomer-albumin complexes versus Aβ oligomers; type: binding; details: immobilized on a plate; IK15j (25 µM)
T4 construct: purchased Sigma-Aldrich (albumin)
Protocol: Full-length Aβ1-42 peptide was immobilized on a maleimide-activated microplate. Then, the plate was treated with additional Aβ1-42 peptide (10 µM) at 37°C for 8 hours. After peptide immobilization, unbound peptides were removed by washing three times with 200 µL of wash buffer. To form albumin-Aβ oligomer complexes, the plate was treated with albumin (10 µM, Sigma-Aldrich, USA) at room temperature for 24 hours, and unbound residues were removed by washing three times with 200 µL of wash buffer. The control Aβ oligomer wells were not treated with albumin. Each well was treated with the compound of the present disclosure (100 µM), and the signal of each sample was detected using a microplate reader (λex = 285 nm / λem = 475 nm).
Subsequently, both wells were treated with IK15j (25 µM), and the signals were compared (FIG. 9D).

albumin = molecular target: T5, albumin (Homo sapiens, UniProt P02768); assay: Selectivity for blood proteins: albumin; type: binding; details: IK15j (25 µM)
T5 construct: purchased Sigma-Aldrich
Protocol: as §3, §4

[3] = MAP incubated with additional Aβ1-42 for 8 hours, then IK15j for 24 hours

T1 sequence (P05067 672-713, one chain of several): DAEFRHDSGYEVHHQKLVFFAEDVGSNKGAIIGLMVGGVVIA
T4 sequence (P05067 672-713, one chain of several): as above
T2 sequence (P05067 672-713): as the sequence (P05067 672-713, one chain of several) above
T3 sequence (P05067 672-713): as the sequence (P05067 672-713, one chain of several) above
T5 sequence (P02768 25-609, species assumed): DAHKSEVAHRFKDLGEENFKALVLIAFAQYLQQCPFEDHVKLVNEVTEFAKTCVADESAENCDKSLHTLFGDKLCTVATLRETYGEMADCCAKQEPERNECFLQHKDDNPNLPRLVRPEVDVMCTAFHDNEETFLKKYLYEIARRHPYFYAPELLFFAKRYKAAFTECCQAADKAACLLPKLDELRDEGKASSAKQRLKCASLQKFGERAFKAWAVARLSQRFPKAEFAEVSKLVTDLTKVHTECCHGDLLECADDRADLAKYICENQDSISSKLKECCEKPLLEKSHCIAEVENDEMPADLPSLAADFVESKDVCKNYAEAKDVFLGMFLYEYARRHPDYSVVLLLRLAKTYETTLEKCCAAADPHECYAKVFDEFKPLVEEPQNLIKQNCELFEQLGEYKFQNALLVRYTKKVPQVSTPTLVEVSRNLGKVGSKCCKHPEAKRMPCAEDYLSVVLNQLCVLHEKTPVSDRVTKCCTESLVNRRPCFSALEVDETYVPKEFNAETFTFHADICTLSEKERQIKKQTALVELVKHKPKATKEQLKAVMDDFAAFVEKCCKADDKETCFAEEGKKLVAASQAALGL

In the case of Cc1ccc2c(c1)c(-c1ccccc1)cn1c(C)cc(C#N)c21 [IK15j, 3,8-dimethyl-6-phenylpyrrolo[2,1-a]isoquinoline-1-carbonitrile], the “binding affinity for the N-terminus of Aβ, Aβ1-8 (DAEFRHDS)” value ([1]; MAP complexes) is reported as “moderate binding affinity”, the “binding to complexes of Aβ1-42 with Aβ19-25 (FFAEDVG) and Aβ35-42 (MVGGVVIA)” value [1, 3] is reported as “bound strongly” and the “overall signal in the presence of Aβ1-42-Aβn-(n+5) complexes” value [1, 3] is reported as “increased”. The “signal in Aβ fragments compared to Aβ1-42” value (Aβn-(n+5) (n = 1 to 37)) was “increase in IK15j signal was observed in 10 Aβ fragments (Aβ14-19 to Aβ23-28)”, the “signal across all Aβ fragments” value (Aβn-(n+5) (n = 1 to 37); heatmap) was “relatively low across all fragments” and the “fluorescence signal with Aβ oligomers in contrast to Aβ monomers” value (Aβ oligomers (oAβ)) was “markedly increased”. The “fluorescence intensity in the presence of Aβ1-42 oligomers compared to other proteins” value (Aβ1-42 oligomers) was “increased markedly”, the “fluorescence intensity, Aβ oligomer-albumin complex versus Aβ oligomers alone” value [2] was “no significant difference in fluorescence intensity” and the interaction with albumin (albumin) was “did not interact”.
